Results reported in article PMC11227536, “Modulation of the Meisenheimer complex metabolism of nitro-benzothiazinones by targeted C-6 substitution” (Communications Chemistry, 2024).

System: RAW 264.7 cells
Assay: Hydride Meisenheimer complex (HMC) formation propensity assay, whole cell
Format: in vitro ADME, murine
Details: whole cell in vitro assay, relative to BTZ-043 (1)
Excerpt: As the main goal of our work, we focused on the impact of C-6 substituents on the propensity to form HMC in our recently developed whole cell in vitro assay. Following our standardized protocol, all measurements were normalized relative to BTZ-043 (1). Obtained HMC formation propensities (Table S5) were transformed into their negative decadic logarithm (pHMC) to ease data visualization and subsequent processing during chemoinformatics investigations (Fig. 5). […] In the case of esters, a plausible pattern according to the substituent size was observed. […] Similarly, dimethyl amide 7c and nitrile 9 produced a 14- and 12-fold larger ratio of HMC compared to 1, respectively. Esters 6a–e and oxazoline 7e were also more prone to HMC formation than 1, albeit to a considerably lesser extent (2.5–6-fold).
3. Hydride Meisenheimer complex formation propensity assay
The assay was performed as described previously. 6
RAW 264.7 cell cultivation […]
Samples were analyzed with a Thermo Vanquish Horizon UHPLC system (Thermo Fisher Scientific, Bremen, Germany) coupled to a Thermo Scientific QExactive Orbitrap mass spectrometer (Thermo Fisher Scientific, Bremen, Germany) by using a UPLC column (ACQUITY HSS T3, Waters, 1.8 µm particle size, 2.1 × 50 mm). […]

For `C[C@H]1COC2(CCN(c3nc(=O)c4cc(C(=O)O)cc([N+](=O)[O-])c4s3)CC2)O1` [Compound 8], the “HMC formation (in words)” value was “Traces”.

With `C[C@H]1COC2(CCN(c3nc(=O)c4cccc([N+](=O)[O-])c4s3)CC2)O1` [Compound 23] the “HMC formation (in words)” value was “no detectable HMC formation”.
